# “And” between values parts separate entries of the source, which are not always exact repeats. Identical values can stand only once. Like-named read-outs stand apart in the source and are kept apart here.
# Assays:
# [1] = Liver microsome metabolic stability; type: in vitro ADME; conditions: 1 μM
# Text: The production of major metabolites in human liver microsomes is closer to that in rats or dogs than in mice or monkeys. The amounts of major metabolites produced in human liver microsomes was closer to the amount produced in […]. […] In addition to the same eight monophasic metabolites as in the in vitro study, five di-phasic metabolites, M6, M7, M8, M9 and M10, were detected in rat bile, but the peak areas of the di-phasic metabolites were much smaller than those of the monophasic metabolites.
# [2] = Plasma protein binding, rapid equilibrium dialysis; type: in vitro ADME; conditions: human, read-out: Plasma protein binding rate (converted)
# [3] = Plasma protein binding, rapid equilibrium dialysis; type: in vitro ADME; conditions: mouse, read-out: Plasma protein binding rate
# CYP2C8 = molecular target: T1, CYP2C8 (Homo sapiens, UniProt P10632); assay: CYP inhibition in human liver microsomes; type: in vitro ADME; conditions: 0.5-25 μM
# T1 construct: substrates of different CYP450 enzymes in mixed human liver microsomes; from tissue; host or cells: mixed human liver microsomes
# T1 sequence (P10632 whole entry): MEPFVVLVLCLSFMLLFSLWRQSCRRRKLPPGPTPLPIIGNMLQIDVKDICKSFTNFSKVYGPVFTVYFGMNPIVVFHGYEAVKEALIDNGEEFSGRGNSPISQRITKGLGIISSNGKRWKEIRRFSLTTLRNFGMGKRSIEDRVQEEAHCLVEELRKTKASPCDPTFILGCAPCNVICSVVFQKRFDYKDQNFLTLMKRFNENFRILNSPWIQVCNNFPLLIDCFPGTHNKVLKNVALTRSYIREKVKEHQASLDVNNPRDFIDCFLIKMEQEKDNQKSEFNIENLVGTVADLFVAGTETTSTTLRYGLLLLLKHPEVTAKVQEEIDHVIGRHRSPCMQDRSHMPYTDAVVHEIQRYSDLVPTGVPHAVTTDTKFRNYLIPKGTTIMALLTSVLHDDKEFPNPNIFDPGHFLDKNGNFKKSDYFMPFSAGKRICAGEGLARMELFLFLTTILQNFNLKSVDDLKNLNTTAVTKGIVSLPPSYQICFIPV
# hERG potassium channel = hERG potassium channel (Homo sapiens, UniProt Q12809); assay: hERG whole-cell patch clamp; type: cell-based; conditions: ± 368.5 nM, read-out: hERG current IC50
# Chain of hERG potassium channel (Q12809 whole entry): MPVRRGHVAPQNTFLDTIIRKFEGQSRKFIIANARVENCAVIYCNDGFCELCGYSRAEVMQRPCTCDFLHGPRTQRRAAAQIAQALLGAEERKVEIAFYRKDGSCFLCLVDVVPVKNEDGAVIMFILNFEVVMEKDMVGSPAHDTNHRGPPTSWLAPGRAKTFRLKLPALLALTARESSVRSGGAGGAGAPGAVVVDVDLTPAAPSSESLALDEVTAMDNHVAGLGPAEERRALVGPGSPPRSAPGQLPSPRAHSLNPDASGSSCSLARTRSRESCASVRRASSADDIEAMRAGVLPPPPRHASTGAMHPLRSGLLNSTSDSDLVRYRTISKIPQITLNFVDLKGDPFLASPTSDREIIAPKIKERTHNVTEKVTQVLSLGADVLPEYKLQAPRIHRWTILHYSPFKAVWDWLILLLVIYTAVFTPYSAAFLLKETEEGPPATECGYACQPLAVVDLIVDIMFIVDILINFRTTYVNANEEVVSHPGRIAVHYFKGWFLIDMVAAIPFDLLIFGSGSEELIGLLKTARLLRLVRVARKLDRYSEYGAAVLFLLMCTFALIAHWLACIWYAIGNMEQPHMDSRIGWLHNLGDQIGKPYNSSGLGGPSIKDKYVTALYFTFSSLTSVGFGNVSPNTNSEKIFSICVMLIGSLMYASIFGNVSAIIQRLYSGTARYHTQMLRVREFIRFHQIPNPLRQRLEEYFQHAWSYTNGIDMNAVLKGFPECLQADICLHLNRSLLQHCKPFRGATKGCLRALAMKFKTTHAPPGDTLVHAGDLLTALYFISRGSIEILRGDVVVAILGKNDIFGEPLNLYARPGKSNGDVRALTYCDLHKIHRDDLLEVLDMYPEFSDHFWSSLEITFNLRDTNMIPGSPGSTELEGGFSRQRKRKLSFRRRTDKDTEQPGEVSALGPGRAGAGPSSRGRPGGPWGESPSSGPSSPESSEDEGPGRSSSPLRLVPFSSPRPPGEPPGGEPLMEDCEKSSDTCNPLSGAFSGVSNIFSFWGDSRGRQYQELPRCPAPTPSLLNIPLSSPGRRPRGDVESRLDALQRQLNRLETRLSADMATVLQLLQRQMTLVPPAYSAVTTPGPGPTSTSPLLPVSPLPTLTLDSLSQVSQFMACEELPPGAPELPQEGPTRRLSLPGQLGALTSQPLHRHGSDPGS
# Text: The rapidly activating potassium channel encoded by the human ether a-go-go-related gene (hERG) is an important ion channel involved in the formation of phase 3 repolarisation of the myocardial action potential. Pharmacological blockade of hERG channels can lead to prolonged cardiac repolarisation with the electrocardiographic manifestation of a prolonged QT interval, known as long QT interval syndrome. Drug-induced delayed ventricular repolarisation can in some cases lead to a fatal arrhythmia, tip-twist ventricular tachycardia.
# [4] = tested on: central nervous system (CNS) metastases; assay: Phase 1 trial: intracranial efficacy (RANO-BM); type: in vivo, human; conditions: for Intracranial lesion reduction: case, KIF5B-RET NSCLC, 160 mg BID
# Text: Ongoing assessments are underway to gain a more comprehensive understanding of its intracranial efficacy.
# cardiovascular system = assay: Cardiovascular safety pharmacology; type: in vivo; conditions: males 2, 4, 6 mg/kg; females 4, 8, 12 mg/kg oral
# Experimental: In the safety pharmacological study of cardiovascular effects, four male and four female beagles with buried implants were selected. […] The animals were evaluated by cage-side and detailed clinical observations, electrocardiogram, heart rate, body temperature and blood pressure.
# [5] = tested on: RET signaling in BaF3-CCDC6-RET^V804M/M918T cells; assay: RET signaling pathway phosphorylation in cells; type: cell-based
# [6] = tested on: patients with advanced RET-altered solid tumors; assay: Phase 1 trial: treatment-related adverse events (CTCAE v5.0), DLT, MTD;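 note: Open-label single-arm first-in-human phase 1 study at six Chinese sites with 3 + 3 dose escalation and expansion, adverse events given descriptively as patient counts and percentages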
# Experimental: This single-arm, open-label, first-in-human, dose-escalation and dose-expansion phase 1 study was conducted across six sites in China (NCT05278364). […] Dose escalation followed a 3 + 3 design, incorporating accelerated titration[41] for the first two dose levels and a modified Fibonacci dose escalation.[42]
# The primary endpoints for this study were to determine the MTD, DLT, RP2D and safety. […] All responses required a confirmation of radiologic assessment at least 4 weeks after the first assessment.
# The Pharmacokinetic Analysis Set (PKAS) included all patients with at least one evaluable PK sample (n = 43). Descriptive statistics were used for baseline data, summarizing continuous data with mean, standard deviation, median, minimum, and maximum, and categorical data with frequency and percentage. Safety analysis was descriptive, including adverse events summarized by frequency and severity. PK parameter analysis was performed using Phoenix WinNonlin version 8.0 (Certara L.P. [Pharsight], St. Louis, MO, USA), and results were summarized using geometric mean and coefficient of variation. CIs for response rates were calculated using the Clopper-Pearson method. […] All analysis were performed with SAS statistical software, version 9.2 (SAS Institute).
# CYP1A2 = molecular target: T2, CYP1A2 (Homo sapiens, UniProt P05177); assay: CYP inhibition in human liver microsomes; type: in vitro ADME; conditions: 0.5-25 μM
# T2 construct: substrates of different CYP450 enzymes in mixed human liver microsomes; from tissue; host or cells: mixed human liver microsomes
# T2 sequence (P05177 whole entry): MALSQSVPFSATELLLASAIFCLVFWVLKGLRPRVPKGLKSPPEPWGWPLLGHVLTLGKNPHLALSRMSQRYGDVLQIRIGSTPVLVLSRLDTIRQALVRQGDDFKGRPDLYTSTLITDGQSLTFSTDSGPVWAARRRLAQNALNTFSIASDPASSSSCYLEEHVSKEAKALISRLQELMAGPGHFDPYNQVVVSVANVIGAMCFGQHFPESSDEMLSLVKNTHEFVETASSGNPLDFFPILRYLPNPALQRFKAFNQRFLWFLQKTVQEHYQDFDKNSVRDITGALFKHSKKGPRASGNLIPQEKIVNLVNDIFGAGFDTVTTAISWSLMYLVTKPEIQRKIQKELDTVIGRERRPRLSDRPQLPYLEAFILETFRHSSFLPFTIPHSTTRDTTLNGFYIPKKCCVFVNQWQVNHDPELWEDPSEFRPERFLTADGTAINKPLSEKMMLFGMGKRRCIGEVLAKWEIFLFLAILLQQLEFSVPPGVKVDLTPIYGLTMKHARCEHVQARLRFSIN
# preclinical animals = assay: Preclinical animal long term (repeat-dose) toxicity tests, species not stated; type: in vivo
# rat bone marrow cells = assay: In vivo bone marrow micronucleus test
# Experimental: The bone marrow cell micronucleus test was positive in male rats at ≥100 mg/kg/day and in female rats at ≥300 mg/kg/day.
# [7] = Pharmacokinetics in beagles; type: in vivo; conditions: both sexes, beagle, dog, plasma, iv, 1 mg/kg i.v.
# [8] = tested on: RET phosphorylation in BaF3-CCDC6-RET^WT cells; assay: RET signaling pathway phosphorylation in cells; type: cell-based
# [9] = Acute toxicity, single oral gavage; conditions: both sexes, beagle, dog, in vivo, read-out: MTD, single dose
smiles,measurement,setting,value
"COc1ccc(CN2C3CC2CN(c2ccc(-c4cc(N5CC(C)(O)C5)cn5ncc(C#N)c45)cn2)C3)cn1 [SY-5007, 6-(3-hydroxy-3-methylazetidin-1-yl)-4-(6-(6-((6-methoxypyridin-3-yl)methyl)-3,6-diazabicyclo[3.1.1]heptan-3-yl)pyridin-3-yl)pyrazolo[1,5-a]pyridine-3-carbonitrile]",Metabolic half-time,[1]; dog liver microsomes,280 min
same,Metabolic half-time,[1]; human liver microsomes,166 min
same,Metabolic half-time,[1]; monkey liver microsomes,57.9 min
same,Metabolic half-time,[1]; mouse liver microsomes,109 min
same,Metabolic half-time,[1]; rat liver microsomes,384 min
same,fraction unbound,[2],0.061
same,fraction unbound,[3],0.01
same,IC50,CYP2C8,9.75 µM
same,IC50,hERG potassium channel,3.3 µM
same,Intracranial ORR,[4]; 2/3 patients with measurable CNS metastases,66.7%
same,Intracranial DCR,[4]; 3/3 patients,100.0%
same,Intracranial lesion reduction,[4]; after 4 weeks,40.7%
same,Intracranial lesion reduction,[4]; after 12 weeks,56.5%
same,Cardiovascular effects,cardiovascular system,None of the changes were found to be related to the study drug
same,Concentration of saturation,[5],100 nM
same,Concentration with significant inhibitory effect on RET signaling,[5],10 nM
same,Dose-limiting toxicity (DLT),[6]; 20 mg QD to 200 mg BID,No dose-limiting toxicity (DLT) was observed
same,Albuminuria,"[6]; All Grade, Total (n = 122)",45 (36.9) n (%)
same,Anemia,"[6]; All Grade, Total (n = 122)",27 (22.1) n (%)
same,Any TRAE,"[6]; All Grade, Total (n = 122)",96.7 n (%) and 118 (96.7) n (%)
same,Conjugated Hyperbilirubinemia,"[6]; All Grade, Total (n = 122)",23 (18.9) n (%)
same,Diarrhea,"[6]; All Grade, Total (n = 122)",54.1 n (%) and 66 (54.1) n (%)
same,Dry mouth,"[6]; All Grade, Total (n = 122)",40 (32.8) n (%)
same,Facial edema,"[6]; All Grade, Total (n = 122)",35 (28.7) n (%)
same,Hyperbilirubinemia,"[6]; All Grade, Total (n = 122)",51 (41.8) n (%)
same,Hyperglycemia,"[6]; All Grade, Total (n = 122)",22 (18.0) n (%)
same,Hyperphosphatemia,"[6]; All Grade, Total (n = 122)",42 (34.4) n (%)
same,Hypertension,"[6]; All Grade, Total (n = 122)",50 (41.0) n (%)
same,Hypertriglyceridemia,"[6]; All Grade, Total (n = 122)",55 (45.1) n (%)
same,Hyperuricemia,"[6]; All Grade, Total (n = 122)",41 (33.6) n (%)
same,Hypoalbuminemia,"[6]; All Grade, Total (n = 122)",33 (27.0) n (%)
same,Hypocalcemia,"[6]; All Grade, Total (n = 122)",34 (27.9) n (%)
same,Hyponatremia,"[6]; All Grade, Total (n = 122)",23 (18.9) n (%)
same,Hypopotassemia,"[6]; All Grade, Total (n = 122)",19 (15.6) n (%)
same,Hypothyroidism,"[6]; All Grade, Total (n = 122)",38 (31.1) n (%)
same,Increased alanine aminotransferase,"[6]; All Grade, Total (n = 122)",56.6 n (%) and 69 (56.6) n (%)
same,Increased aspartate aminotransferase,"[6]; All Grade, Total (n = 122)",69.7 n (%) and 85 (69.7) n (%)
same,Increased blood alkaline phosphatase,"[6]; All Grade, Total (n = 122)",43 (35.2) n (%)
same,Increased blood creatine,"[6]; All Grade, Total (n = 122)",45 (36.9) n (%)
same,Increased blood creatine phosphokinase,"[6]; All Grade, Total (n = 122)",40 (32.8) n (%)
same,Increased blood creatine phosphokinase MB,"[6]; All Grade, Total (n = 122)",54 (44.3) n (%)
same,Increased blood lactate dehydrogenase,"[6]; All Grade, Total (n = 122)",51 (41.8) n (%)
same,Increased γ-Glutamyl transferase,"[6]; All Grade, Total (n = 122)",28 (23.0) n (%)
same,Leukopenia,"[6]; All Grade, Total (n = 122)",56 (45.9) n (%)
same,Lymphopenia,"[6]; All Grade, Total (n = 122)",30 (24.6) n (%)
same,Neutropenia,"[6]; All Grade, Total (n = 122)",54.1 n (%) and 66 (54.1) n (%)
same,Palmoplantar erythema syndrome,"[6]; All Grade, Total (n = 122)",23 (18.9) n (%)
same,Peripheral edema,"[6]; All Grade, Total (n = 122)",23 (18.9) n (%)
same,Thrombocytopenia,"[6]; All Grade, Total (n = 122)",50 (41.0) n (%)
same,Weakness,"[6]; All Grade, Total (n = 122)",20 (16.4) n (%)
same,Weight loss,"[6]; All Grade, Total (n = 122)",22 (18.0) n (%)
same,Xeromycteria,"[6]; All Grade, Total (n = 122)",21 (17.2) n (%)
same,Conjugated Hyperbilirubinemia,"[6]; Grade ⩾ 3, dose group",0 (0.0) n (%)
same,Dry mouth,"[6]; Grade ⩾ 3, dose group",0 (0.0) n (%)
same,Facial edema,"[6]; Grade ⩾ 3, dose group",0 (0.0) n (%)
same,Hyperglycemia,"[6]; Grade ⩾ 3, dose group",0 (0.0) n (%)
same,Hyperphosphatemia,"[6]; Grade ⩾ 3, dose group",0 (0.0) n (%)
same,Hyperuricemia,"[6]; Grade ⩾ 3, dose group",0 (0.0) n (%)
same,Hypoalbuminemia,"[6]; Grade ⩾ 3, dose group",0 (0.0) n (%)
same,Hypothyroidism,"[6]; Grade ⩾ 3, dose group",0 (0.0) n (%)
same,Increased blood alkaline phosphatase,"[6]; Grade ⩾ 3, dose group",0 (0.0) n (%)
same,Increased blood creatine,"[6]; Grade ⩾ 3, dose group",0 (0.0) n (%)
same,Increased blood lactate dehydrogenase,"[6]; Grade ⩾ 3, dose group",0 (0.0) n (%)
same,Peripheral edema,"[6]; Grade ⩾ 3, dose group",0 (0.0) n (%)
same,Xeromycteria,"[6]; Grade ⩾ 3, dose group",0 (0.0) n (%)
same,Dose discontinuation due to TRAE,[6]; n = 122,2 (1.6%) n (%)
same,Dose interruption due to diarrhea,[6]; n = 122,10.7%
same,Dose interruption due to hypertension,[6]; n = 122,12.3%
same,Dose reduction due to hypertension,[6]; n = 122,5.7%
same,TRAE-induced dose interruption,[6]; n = 122,56 (45.9%) n (%)
same,TRAE-induced dose reduction,[6]; n = 122,29 (23.8%) n (%)
same,Treatment-related deaths,[6]; n = 122,no treatment-related deaths
same,Treatment-related serious adverse events (TRSAEs),[6]; n = 122,13 (10.7%) n (%)
same,Maximum tolerated dose (MTD),[6]; up to 200 mg BID,not reached
same,IC50,CYP1A2,> 25 µM
same,Liver and gallbladder toxicity,preclinical animals; preclinical animal long term toxicity tests,"? Provision is made for the toxicity to the liver and gallbladder found in preclinical animal long term toxicity tests, and for adverse events associated with drugs with a similar mechanism of action to this product."
same,Reproductive toxicity (reproductive tissue weight),preclinical animals; preclinical long toxicity experiments,"? Preclinical long toxicity experiments observed a weight reduction in reproductive tissue, so relevant regulations are made."
same,Dose at which micronucleus test positive,rat bone marrow cells; female rats,≥ 300 mg/kg/day
same,Dose at which micronucleus test positive,rat bone marrow cells; male rats,≥ 100 mg/kg/day
same,clearance,[7],6.63 mL/min/kg
same,half-life,[7],3.27 h
same,Vd,[7]; read-out: Vss,1.43 L/kg
same,Concentration at which effect reaches saturation,[8],10 nM
same,Concentration significantly inhibiting RET phosphorylation,[8],1 nM
same,MTD,[9],200 mg/kg
